Legend:
[1] = tested on: 5′-biotinylated dsDNA (DNA, duplex) TGTAATCGTAGGTTGGTCCCATCACCCACC/GGTGGGTGATGGGACCAACCTACGATTACA; assay: resonant mirror optical biosensor kinetics (IAsys plus); conditions: 138 mM NaCl, 2.7 mM KCl; PBS (10 mM Na2HPO4), pH 7.4, 37 °C; monoexponential fit
CRL-1831 cells = assay: Cytoplasmic cholesterol levels (AmplexRed), CRL-1831; type: cell-based, human; conditions: 10 μM, 4 h
Procedure: After 4 h exposure to 10 μM of both compounds at 37 °C, cells were trypsinized, washed with PBS, and pelleted by centrifugation at 8000g for 5 min. Cytoplasmic cholesterol levels were quantitated using the AmplexRed Cholesterol Assay kit.[48] Briefly, the pellets were resuspended in the reaction buffer and lysed with a 29G syringe. The working solution, containing the Amplex Red reagent (300 mM), horseradish peroxidase (2 U/mL), cholesterol oxidase (2 U/mL), and cholesterol esterase (0.2 U/mL) in 1× reaction buffer was freshly prepared before each experiment. […] Working solution (50 μL), 40 μL of 1× reaction buffer, and 40 μL of cell lysates were placed in a 96-well plate and incubated at 37 °C for 30 min. After 4 h, fluorescence measurements were recorded (λexc = 540 nm, λem = 590 nm) using a SpectraMax Gemini XPS microplate reader (Molecular Device, Milan – Italy).

COc1ccc(C(=O)c2c(C)nn(-c3ccccc3)c2[O-])cc1.COc1ccc(C(=O)c2c(C)nn(-c3ccccc3)c2[O-])cc1.COc1ccc(C(=O)c2c(C)nn(-c3ccccc3)c2[O-])cc1.[Ga+3]
KD [1]: 3.34 ± 1.67 µM

Cc1nn(-c2ccccc2)c([O-])c1C(=O)c1ccc(C(C)(C)C)cc1.Cc1nn(-c2ccccc2)c([O-])c1C(=O)c1ccc(C(C)(C)C)cc1.Cc1nn(-c2ccccc2)c([O-])c1C(=O)c1ccc(C(C)(C)C)cc1.[Ga+3]
KD [1]: 3.27 ± 0.78 µM

Cc1nn(-c2ccccc2)c([O-])c1C(=O)c1ccccc1.Cc1nn(-c2ccccc2)c([O-])c1C(=O)c1ccccc1.Cc1nn(-c2ccccc2)c([O-])c1C(=O)c1ccccc1.[Ga+3]
KD [1]: 0.76 ± 0.54 µM

Cc1nn(-c2ccccc2)c([O-])c1C(=O)c1ccco1.Cc1nn(-c2ccccc2)c([O-])c1C(=O)c1ccco1.Cc1nn(-c2ccccc2)c([O-])c1C(=O)c1ccco1.[Ga+3]
KD [1]: 3.63 ± 1.88 µM

Cc1nn(-c2ccccc2)c([O-])c1C(=O)c1cccs1.Cc1nn(-c2ccccc2)c([O-])c1C(=O)c1cccs1.Cc1nn(-c2ccccc2)c([O-])c1C(=O)c1cccs1.[Ga+3]
KD [1]: 2.24 ± 1.36 µM

CCC(C)(C)C(=O)O[C@H]1C[C@@H](C)C=C2C=C[C@H](C)[C@H](CC[C@@H]3C[C@@H](O)CC(=O)O3)[C@H]21 [Simvastatin, reference compound]
cytoplasmic cholesterol concentration, CRL-1831 (CRL-1831 cells): significantly decreased
